Test results reported in PMC7673538 (PLoS Biology, 2020).
“And” between values parts separate entries of the source, which are not always exact repeats. Identical values can stand only once. Like-named read-outs stand apart in the source and are kept apart here.

Columns and labels:
EV-D68 (strain Fermon) = type: cell-based, enterovirus D68
PV-1 = test: microbe, parasite or virus in culture; type: cell-based, poliovirus 1; details: for EC50: Enterovirus C
HRV-A2 [1] = type: cell-based, human rhinovirus
HRV-B14 = type: cell-based, human rhinovirus
HRV-A2 [2] = test: microbe, parasite or virus in culture; type: cell-based, human rhinovirus; details: for EC50: Human rhinovirus sp.
Rluc-CV-B3 = type: cell-based; details: Fig 3B
[3] = tested on: all representative viruses; type: cell-based
[4] = HRVA2, HeLa R19, read-out: EC50 HRV-A2

COc1ccc(N(Cc2ccc(F)cc2)C(=O)c2ccco2)cc1 [Compound 1, N-(4-fluorobenzyl)-N-(4-methoxyphenyl)furan-2-carboxamide]
virus titer, TCID50/ml (Figure 2A) (EV-D68 (strain Fermon); compound concentration 3 µM): 31622.8 TCID50/ml and 21379.6 TCID50/ml and 35481.3 TCID50/ml | virus titer, TCID50/ml (Figure 2A) (EV-D68 (strain Fermon); compound concentration 10 µM): 31622.8 TCID50/ml and 21379.6 TCID50/ml and 35481.3 TCID50/ml | virus titer, TCID50/ml (Figure 2A) (EV-D68 (strain Fermon); compound concentration 100 µM): 31622.8 TCID50/ml and 21379.6 TCID50/ml and 35481.3 TCID50/ml | Figure 7 dose-response raw data, PV-1 (triplicate values) (PV-1; Concentration 0.0046 µM): 10.497 and 8.759 and 8.625 | Figure 7 dose-response raw data, PV-1 (triplicate values) (PV-1; Concentration 0.0137 µM): 10.497 and 8.759 and 8.625 | Figure 7 dose-response raw data, PV-1 (triplicate values) (PV-1; Concentration 0.0412 µM): 10.497 and 11.7005 and 9.1598 | Figure 7 dose-response raw data, PV-1 (triplicate values) (PV-1; Concentration 0.1235 µM): 10.7644 and 8.357 and 9.1598 | Figure 7 dose-response raw data, PV-1 (triplicate values) (PV-1; Concentration 0.3704 µM): 13.4388 and 8.357 and 9.294 | Figure 7 dose-response raw data, PV-1 (triplicate values) (PV-1; Concentration 1.1111 µM): 13.4388 and 8.357 and 9.294 | Figure 7 dose-response raw data, PV-1 (triplicate values) (PV-1; Concentration 3.3333 µM): 10.497 and 11.7005 and 9.1598 | Figure 7 dose-response raw data, PV-1 (triplicate values) (PV-1; Concentration 11.1111 µM): 10.7644 and 8.357 and 9.1598 | Figure 7 dose-response raw data, PV-1 (triplicate values) (PV-1; Concentration 33.3333 µM): 13.4388 and 8.357 and 9.294 | Figure 7 dose-response raw data, PV-1 (triplicate values) (PV-1; Concentration 100 µM): 9.294 and 9.1598 | EC50 (PV-1; HeLa R19, read-out: EC50 PV-1): > 30 µM | EC50 (PV-1; HeLa R19, read-out: EC50 PV-1 Average): > 30 µM | EC50 (PV-1; HeLa R19, read-out: EC50 PV-1 Experiement 3): > 30 µM | EC50 (PV-1; HeLa R19, read-out: EC50 PV-1 Experiment 1): > 30 µM | EC50 (PV-1; HeLa R19, read-out: EC50 PV-1 Experiment 2): > 30 µM | virus titer, TCID50/ml (Figure 2A) (HRV-A2 [1]; compound concentration 0.1 µM): 316278 TCID50/ml and 312278 TCID50/ml | virus titer, TCID50/ml (Figure 2A) (HRV-A2 [1]; compound concentration 0.3 µM): 169824 TCID50/ml and 100000 TCID50/ml | virus titer, TCID50/ml (Figure 2A) (HRV-A2 [1]; compound concentration 3 µM): 354813 TCID50/ml | virus titer, TCID50/ml (Figure 2A) (HRV-A2 [1]; compound concentration 100 µM): 169824 TCID50/ml and 188844 TCID50/ml | virus titer, TCID50/ml (Figure 2A) (HRV-A2 [1]; compound concentration 150 µM): 354813 TCID50/ml and 588844 TCID50/ml | virus titer, TCID50/ml (Figure 2A) (HRV-B14; compound concentration 0.1 µM): 10000000 TCID50/ml | Figure 7 dose-response raw data, HRV-A2 (triplicate values) (HRV-A2 [2]; Concentration 0.0412 µM): 7.118 and 8.563 and 11.1417 | Figure 7 dose-response raw data, HRV-A2 (triplicate values) (HRV-A2 [2]; Concentration 0.1235 µM): 6.499 and 7.221 and 5.983 | Figure 7 dose-response raw data, HRV-A2 (triplicate values) (HRV-A2 [2]; Concentration 0.3704 µM): 11.7607 and 8.975 and 8.666 | Figure 7 dose-response raw data, HRV-A2 (triplicate values) (HRV-A2 [2]; Concentration 3.3333 µM): 6.087 and 4.436 and 5.983 | Figure 7 dose-response raw data, HRV-A2 (triplicate values) (HRV-A2 [2]; Concentration 33.3333 µM): 4.849 and 8.666 and 8.769 | Figure 7 dose-response raw data, HRV-A2 (triplicate values) (HRV-A2 [2]; Concentration 100 µM): 4.849 and 8.666 and 8.769 | EC50 (HRV-A2 [2]; [4]): > 30 µM | EC50 (HRV-A2 [2]; HRVA2, HeLa R19, read-out: EC50 HRV-A2 Average): > 30 µM | EC50 (HRV-A2 [2]; HRVA2, HeLa R19, read-out: EC50 HRV-A2 Experiement 3): > 30 µM | EC50 (HRV-A2 [2]; HRVA2, HeLa R19, read-out: EC50 HRV-A2 Experiment 1): > 30 µM | EC50 (HRV-A2 [2]; HRVA2, HeLa R19, read-out: EC50 HRV-A2 Experiment 2): > 30 µM

COc1ccc(N(Cc2ccc(F)cc2)C(=O)c2cc[nH]c2)cc1 [Compound 12a, N-(4-Fluorobenzyl)-N-(4-methoxyphenyl)-1H-pyrrole-3-carboxamide]
virus titer, TCID50/ml (Figure 2A) (EV-D68 (strain Fermon); compound concentration 0.01 µM): 6000000 TCID50/ml and 4677352 TCID50/ml | virus titer, TCID50/ml (Figure 2A) (EV-D68 (strain Fermon); compound concentration 0.1 µM): 7000000 TCID50/ml and 4677352 TCID50/ml and 8000000 TCID50/ml | virus titer, TCID50/ml (Figure 2A) (EV-D68 (strain Fermon); compound concentration 3 µM): 21379.6 TCID50/ml and 35481.3 TCID50/ml and 31622.8 TCID50/ml | virus titer, TCID50/ml (Figure 2A) (EV-D68 (strain Fermon); compound concentration 100 µM): 31622.8 TCID50/ml and 21379.6 TCID50/ml and 35481.3 TCID50/ml | Figure 7 dose-response raw data, PV-1 (triplicate values) (PV-1; Concentration 0.0046 µM): 10.497 and 11.7005 and 9.1598 | Figure 7 dose-response raw data, PV-1 (triplicate values) (PV-1; Concentration 0.0137 µM): 10.497 and 11.7005 and 9.1598 | Figure 7 dose-response raw data, PV-1 (triplicate values) (PV-1; Concentration 0.0412 µM): 10.7644 and 8.357 and 9.1598 | Figure 7 dose-response raw data, PV-1 (triplicate values) (PV-1; Concentration 0.1235 µM): 13.4388 and 8.357 and 9.294 | Figure 7 dose-response raw data, PV-1 (triplicate values) (PV-1; Concentration 0.3704 µM): 10.497 and 11.7005 and 9.1598 | Figure 7 dose-response raw data, PV-1 (triplicate values) (PV-1; Concentration 1.1111 µM): 10.7644 and 8.357 and 9.1598 | Figure 7 dose-response raw data, PV-1 (triplicate values) (PV-1; Concentration 3.3333 µM): 13.4388 and 8.357 and 9.294 | Figure 7 dose-response raw data, PV-1 (triplicate values) (PV-1; Concentration 100 µM): 99.781 and 98.9928 and 101.358 | EC50 (PV-1; HeLa R19, read-out: EC50 Exp1): 3.89 µM | EC50 (PV-1; HeLa R19, read-out: EC50 Exp2): 3.53 µM | EC50 (PV-1; HeLa R19, read-out: EC50 PV-1): 3.71 ± 0.18 µM | virus titer, TCID50/ml (Figure 2A) (HRV-A2 [1]; compound concentration 3 µM): 354813 TCID50/ml | virus titer, TCID50/ml (Figure 2A) (HRV-A2 [1]; compound concentration 100 µM): 737.962 TCID50/ml and 467.735 TCID50/ml and 500 TCID50/ml | virus titer, TCID50/ml (Figure 2A) (HRV-B14; compound concentration 0.3 µM): 10000000 TCID50/ml and 16982440 TCID50/ml | virus titer, TCID50/ml (Figure 2A) (HRV-B14; compound concentration 3 µM): 10000000 TCID50/ml and 16982440 TCID50/ml | resistance profile against Rluc-CV-B3 2C mutants (in words) (Rluc-CV-B3): resembled that of the parental compound 1 and (S)-fluoxetine | Figure 7 dose-response raw data, HRV-A2 (triplicate values) (HRV-A2 [2]; Concentration 0.0412 µM): 16.3585 and 16.9681 and 15.3831 | Figure 7 dose-response raw data, HRV-A2 (triplicate values) (HRV-A2 [2]; Concentration 0.3704 µM): 15.1392 and 18.0654 and 15.3831 | Figure 7 dose-response raw data, HRV-A2 (triplicate values) (HRV-A2 [2]; Concentration 1.1111 µM): 18.0654 and 16.8462 and 24.4056 | Figure 7 dose-response raw data, HRV-A2 (triplicate values) (HRV-A2 [2]; Concentration 3.3333 µM): 11.1156 and 18.0654 and 21.7232 | Figure 7 dose-response raw data, HRV-A2 (triplicate values) (HRV-A2 [2]; Concentration 11.1111 µM): 48.3946 and 57.9264 and 41.9398 | Figure 7 dose-response raw data, HRV-A2 (triplicate values) (HRV-A2 [2]; Concentration 33.3333 µM): 99.5652 and 104.147 and 100.034 | Figure 7 dose-response raw data, HRV-A2 (triplicate values) (HRV-A2 [2]; Concentration 100 µM): 89.5652 and 104.147 and 110.034 | EC50 (HRV-A2 [2]; [4]): 8.51 ± 0.22 µM | cytotoxic effect in parallel to single-cycle assay (in words) (HeLa R19 cells): none of them showed any cytotoxic effect | inhibition in single-cycle viral replication assay (in words) [3]: inhibited all representative viruses

O=C(c1ccco1)N(Cc1ccc(F)cc1)c1ccccc1 [Compound 19b, N-(4-Fluorobenzyl)-N-phenylfuran-2-carboxamide]
EC50 (PV-1; HeLa R19, read-out: EC50 Exp1): 8.5 µM | EC50 (PV-1; HeLa R19, read-out: EC50 Exp2): 9.65 µM | EC50 (PV-1; HeLa R19, read-out: EC50 PV-1): 9.08 ± 0.54 µM | EC50 (HRV-A2 [2]; [4]): 22.2 ± 0.61 µM

O=C(c1ccco1)N(Cc1ccc(C(F)(F)F)cc1)c1ccccc1 [Compound 19d, N-phenyl-N-(4-(trifluoromethyl)benzyl)furan-2-carboxamide]
virus titer, TCID50/ml (Figure 2A) (EV-D68 (strain Fermon); compound concentration 0.01 µM): 6000000 TCID50/ml and 4677352 TCID50/ml and 3162278 TCID50/ml | virus titer, TCID50/ml (Figure 2A) (EV-D68 (strain Fermon); compound concentration 0.1 µM): 5888437 TCID50/ml and 6000000 TCID50/ml and 3162278 TCID50/ml | virus titer, TCID50/ml (Figure 2A) (EV-D68 (strain Fermon); compound concentration 0.3 µM): 6000000 TCID50/ml and 3548134 TCID50/ml | virus titer, TCID50/ml (Figure 2A) (EV-D68 (strain Fermon); compound concentration 10 µM): 31622.8 TCID50/ml and 21379.6 TCID50/ml and 35481.3 TCID50/ml | EC50 (PV-1; HeLa R19, read-out: EC50 Exp1): 21 µM | EC50 (PV-1; HeLa R19, read-out: EC50 Exp2): 22.1 µM | EC50 (PV-1; HeLa R19, read-out: EC50 PV-1): 21.5 ± 0.54 µM | virus titer, TCID50/ml (Figure 2A) (HRV-A2 [1]; compound concentration 0.01 µM): 354813 TCID50/ml | virus titer, TCID50/ml (Figure 2A) (HRV-A2 [1]; compound concentration 1 µM): 169824 TCID50/ml and 188844 TCID50/ml | virus titer, TCID50/ml (Figure 2A) (HRV-A2 [1]; compound concentration 3 µM): 354813 TCID50/ml and 588844 TCID50/ml | virus titer, TCID50/ml (Figure 2A) (HRV-A2 [1]; compound concentration 30 µM): 1316.23 TCID50/ml and 1316 TCID50/ml | virus titer, TCID50/ml (Figure 2A) (HRV-B14; compound concentration 0.001 µM): 13548130 TCID50/ml and 11698240 TCID50/ml | virus titer, TCID50/ml (Figure 2A) (HRV-B14; compound concentration 0.01 µM): 16982410 TCID50/ml and 30000000 TCID50/ml and 31612280 TCID50/ml | virus titer, TCID50/ml (Figure 2A) (HRV-B14; compound concentration 0.1 µM): 13548130 TCID50/ml and 11698240 TCID50/ml | virus titer, TCID50/ml (Figure 2A) (HRV-B14; compound concentration 0.3 µM): 13548130 TCID50/ml and 11698240 TCID50/ml | virus titer, TCID50/ml (Figure 2A) (HRV-B14; compound concentration 1 µM): 348134 TCID50/ml and 316228 TCID50/ml and 354813 TCID50/ml | EC50 (HRV-A2 [2]; [4]): 15.2 ± 1.13 µM | cytotoxic effect in parallel to single-cycle assay (in words) (HeLa R19 cells): none of them showed any cytotoxic effect | Cytotoxicity values, % compared to DMSO (Figure 2B) (HeLa R19 cells; compound concentration 0.01 µM): 101.341% | inhibition in single-cycle viral replication assay (in words) [3]: inhibited all representative viruses
